This note sets out measurements from DBAASP.

≈ marks a conversion by molar mass, not a printed value.

Broadly, the MIC is the smallest concentration in the dilution series that meets the test's criterion for growth inhibition.

Experiment in all cases: ≥ marks a high value that may be exact or a test limit, other limits are often not marked, values filed in µg/mL are converted to µM
The test system of assay [1] is Escherichia coli DSM 1103.
Assay [2] has as its system Staphylococcus epidermidis DSM 1798.
Assay [3] concerns Staphylococcus aureus DSM 1104.
Assay [4] concerns Pseudomonas aeruginosa DSM 1117.
In assay [5] the test system is Pseudomonas aeruginosa Ps4.
Assay [6] relates to Escherichia coli ATCC 25922.
The test system of assay [7] is Salmonella enterica subsp. enterica serovar Typhimurium ATCC 14028.
The test system of assay [8] is Staphylococcus aureus ATCC 29213.
Assay [9] concerns Bacillus cereus ATCC 11778.
Assay [10] concerns Klebsiella aerogenes ATCC 13048.

For `CC[C@H](C)[C@H](NC(=O)CNC(=O)[C@@H](NC(=O)[C@H](C)N)C(C)C)C(=O)NCC(=O)N[C@@H](C)C(=O)N[C@@H](CC(C)C)C(=O)N[C@@H](Cc1ccccc1)C(=O)N[C@@H](CC(C)C)C(=O)NCC(=O)N[C@@H](Cc1ccccc1)C(=O)N[C@@H](CC(C)C)C(=O)NCC(=O)N[C@@H](C)C(=O)N[C@@H](C)C(=O)NCC(=O)N[C@@H](CO)C(=O)N[C@H](C(=O)N[C@@H](CCSC)C(=O)NCC(=O)N[C@@H](C)C(=O)N[C@@H](CCCN=C(N)N)C(=O)N[C@@H](CO)C(N)=O)[C@@H](C)O` [AVGIGALFLGFLGAAGSTMGARS], the MIC in assay [1], in assay [2], in assay [3] and in assay [4] was ≥ 117 µM in each case.

Turning to `CC[C@H](C)[C@H](NC(=O)[C@H](CC(N)=O)NC(=O)[C@H](CCCN=C(N)N)NC(=O)[C@H](C)NC(=O)[C@H](Cc1c[nH]c2ccccc12)NC(=O)[C@@H](N)Cc1ccccc1)C(=O)N[C@@H](CCCN=C(N)N)C(=O)N[C@@H](CCCCN)C(=O)N[C@H](C(=O)N[C@@H](CCCN=C(N)N)C(N)=O)C(C)C` [FWARNIRKVR], the MIC in assay [5] is ≥ 186 µM.

For `CC[C@H](C)[C@H](NC(=O)[C@H](C)NC(=O)CNC(=O)[C@H](C)NC(=O)[C@H](CCCN=C(N)N)NC(=O)[C@H](CO)NC(=O)[C@H](C)NC(=O)[C@H](CCSC)NC(=O)CN)C(=O)N[C@@H](C)C(=O)NCC(=O)N[C@@H](CCCN=C(N)N)C(=O)N[C@H](C(=O)N[C@@H](C)C(=O)N[C@@H](CCCN=C(N)N)C(=O)N[C@H](C(=O)N[C@@H](C)C(=O)N[C@@H](CC(C)C)C(=O)N[C@@H](CCCN=C(N)N)C(=O)N[C@@H](C)C(=O)N[C@@H](CC(C)C)C(N)=O)C(C)C)[C@@H](C)CC` [GMASRAGAIAGRIARVALRAL], the MIC in [1] was 7 µM (≈ 14.6 µg/mL); in [2] it was 2 µM (≈ 4.16 µg/mL); in assay [3], 4 µM (≈ 8.32 µg/mL); in assay [4] it was ≥ 113 µM.

On to `CC[C@H](C)[C@H](N)C(=O)N[C@@H](CC(C)C)C(=O)NCC(=O)N[C@@H](CCCCN)C(=O)N[C@@H](CC(C)C)C(=O)N[C@@H](Cc1c[nH]c2ccccc12)C(=O)N[C@@H](CCC(=O)O)C(=O)NCC(=O)N[C@@H](CC(C)C)C(=O)N[C@@H](CCCCN)C(=O)N[C@@H](CO)C(=O)N[C@@H](CC(C)C)C(=O)N[C@@H](Cc1ccccc1)C(N)=O` [ILGKLWEGLKSLF], for which the MIC in [6] is 33.2 µM (≈ 50 µg/mL); in assay [7], 66.5 µM (≈ 99.9 µg/mL); in assay [8] it was 33.2 µM (≈ 50 µg/mL); in assay [9], ≥ 66.5 µM; in assay [10], ≥ 66.5 µM.

`CC[C@H](C)[C@H](NC(=O)[C@H](CCCN=C(N)N)NC(=O)CNC(=O)[C@H](C)NC(=O)[C@@H](NC(=O)[C@H](CCCN=C(N)N)NC(=O)[C@H](C)NC(=O)[C@@H](NC(=O)[C@H](CCCN=C(N)N)NC(=O)CNC(=O)[C@H](C)NC(=O)[C@@H](NC(=O)[C@H](CCCN=C(N)N)NC(=O)[C@H](C)NC(=O)[C@@H](NC(=O)[C@H](CCCN=C(N)N)NC(=O)CNC(=O)[C@H](C)NC(=O)[C@@H](NC(=O)[C@@H](N)CCCN=C(N)N)[C@@H](C)CC)[C@@H](C)CC)[C@@H](C)CC)[C@@H](C)CC)[C@@H](C)CC)C(=O)N[C@@H](C)C(N)=O` [RIAGRIARIAGRIARIAGRIA]: the MIC in assay [1] amounted to 6 µM (≈ 13.4 µg/mL); in assay [2], 2 µM (≈ 4.46 µg/mL); in assay [3], 3 µM (≈ 6.69 µg/mL); in assay [4] it was 26 µM (≈ 58 µg/mL).

For `CC(C)C[C@H](NC(=O)[C@H](CCCN=C(N)N)NC(=O)[C@@H](NC(=O)[C@@H]1CCCN1C(=O)[C@@H]1CCCN1C(=O)[C@@H]1CCCN1C(=O)[C@H](CC(C)C)NC(=O)[C@H](CCCN=C(N)N)NC(=O)[C@@H](NC(=O)[C@@H]1CCCN1C(=O)[C@@H]1CCCN1C(=O)[C@@H]1CCCN1C(=O)[C@H](CC(C)C)NC(=O)[C@H](CCCN=C(N)N)NC(=O)[C@@H](N)C(C)C)C(C)C)C(C)C)C(=O)N1CCC[C@H]1C(=O)N1CCC[C@H]1C(=O)N1CCC[C@H]1C(=O)O` [VRLPPPVRLPPPVRLPPP], the MIC in assay [1], in assay [2], in assay [3] and in assay [4] was ≥ 122 µM each time.
